Measured values: US12485121B2, “Antiviral agents for the treatment and prevention of HIV infection” (Pharmasyntez, Joint Stock Company, priority 2020, dated 2025)

The compounds below were run on HIV-1 subtype A strain 12RU 69831 (assay: Inhibition of HIV-1 reproduction / protection of infected MT-4 cells (living cell concentration, p24 production)). Settings: Human immunodeficiency virus 1, MT4, MT-4 cells infected with HIV-1 at a constant virus dose of 300 CCID50; read-out: Activity against HIV-1 12RU 69831 strain (subtype A).
Format: cell-based
Summary of the method: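 MT-4 cells infected with HIV-1 subtype A 12RU 69831 at a constant 300 CCID50 dose and treated with various compound concentrations. Protection measured as change in living cell concentration; viral replication measured as p24 production.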

Structure (SMILES)	IC50 [nM]
Cc1cc(C#N)cc(C)c1Oc1nc(Nc2ccc(C#N)cc2)nc2c1CN(C(=O)[C@@H](N)CC(C)C)CC2 [BB0274129, (S)-4-((6-(2-Amino-4-methylpentanoyl)-2-((4-cyanophenyl)amino)-5,6,7,8-tetrahydropyrido[4,3-d]pyrimidine-4-yl)oxy)-3,5-dimethylbenzonitrile]	1040
Cc1cc(C#N)cc(C)c1Oc1nc(Nc2ccc(C#N)cc2)nc2c1CCNCC2 [BB0274021, 4-((2-((4-Cyanophenyl)amino)-6,7,8,9-tetrahydro-5H-pyrimido[4,5-d]azepine-4-yl)oxy)-3,5-dimethylbenzonitrile]	10.2
Cc1cc(C#N)cc(C)c1Oc1nc(Nc2ccc(C#N)cc2)nc2c1CN(C(=O)CN1CC(O)C1)CC2 [BB0274052, 4-((2-((4-Cyanophenyl)amino)-6-(2-(3-hydroxyazetidine-1-yl)acetyl)-5,6,7,8-tetrahydropyrido[4,3-d]pyrimidine-4-yl)oxy)-3,5-dimethylbenzonitrile]	127
Cc1cc(C#N)cc(C)c1Oc1nc(Nc2ccc(C#N)cc2)nc2c1CN(C(=O)C(N)Cc1cnc[nH]1)CC2 (centres unmarked) [BB0275622, 4-({6-[2-Amino-3-(1H-imidazole-5-yl)propanoyl]-2-[(4-cyanophenyl)amino]-5H,6H,7H,8H-pyrido[4,3-d]pyrimidine-4-yl}oxy)-3,5-dimethylbenzonitrile]	32
CSCC[C@H](N)C(=O)N1CCc2nc(Nc3ccc(C#N)cc3)nc(Oc3c(C)cc(C#N)cc3C)c2C1 [BB0274132, 4-((2-((4-cyanophenyl)amino)-6-methionyl-5,6,7,8-tetrahydropyrido[4,3-d]pyrimidin-4-yl)oxy)-3,5-dimethylbenzonitrile]	909
Cc1cc(C#N)cc(C)c1Oc1nc(Nc2ccc(C#N)cc2)nc2c1CCN(C(=O)Cn1ccnc1C)CC2 [BB0274236, 4-((2-((4-Cyanophenyl)amino)-7-(2-(methyl-1H-imidazole-1-yl)acetyl)-6,7,8,9-tetrahydro-5H-pyrimido[4,5-d]azepine-4-yl)oxy)-3,5-dimethylbenzonitrile]	48.8
Cc1cc(C#N)cc(C)c1OC1=NC(Nc2ccc(C#N)cc2)=NC2CCN(C(=O)NC3CCOCC3)CC12 (centres unmarked) [BB0274337, 4-(4-Cyano-2,6-dimethylphenoxy)-2-[(4-cyanophenyl)amino]-N-(oxan-4-yl)-4aH,5H,6H,7H,8H,8aH-pyrido [4,3-d]pyrimidine-6-carboxamide]	205000
Cc1cc(C#N)cc(C)c1Oc1nc(Nc2ccc(C#N)cc2)nc2c1CN(C(=O)[C@@H](N)CCCCN)CC2 [BB0274131, (S)-4-((2-((4-Cyanophenyl)amino)-6-(2,6-diaminohexanoyl)-5,6,7,8-tetrahydropyrido[4,3-d]pyrimidine-4-yl)oxy)-3,5-dimethylbenzonitrile]	667
Cc1cc(C#N)cc(C)c1Oc1nc(Nc2ccc(C#N)cc2)nc2c1CN(C(=O)[C@H](N)C(C)C)CC2 [BB0274127, (R)-4-((6-(2-Amino-3-methylbutanoyl)-2-((4-cyanophenyl)amino)-5,6,7,8-tetrahydropyrido[4,3-d]pyrimidine-4-yl)oxy)-3,5-dimethylbenzonitrile]	12100
Cc1cc(C#N)cc(C)c1Oc1nc(Nc2ccc(C#N)cc2)nc2c1CCN(C1CCOCC1)CC2 [BB0274072, 4-((2-((4-Cyanophenyl)amino)-7-(tetrahydro-2H-pyran-4-yl)-6,7,8,9-tetrahydro-5H-pyrimido[4,5-d]azepine-4-yl)oxy)-3,5-dimethylbenzonitrile]	4070

The next lines start with the values.

IC50 [nM]	Structure (SMILES)
145	Cc1cc(C#N)cc(C)c1Oc1nc(Nc2ccc(C#N)cc2)nc2c1CN(S(C)(=O)=O)CC2 [BB0273964, 4-((2-((4-Cyanophenyl)amino)-6-(methylsulfonyl)-5,6,7,8-tetrahydropyrido[4,3-d]pyrimidine-4-yl)oxy)-3,5-dimethylbenzonitrile]
533000	Cc1cc(C#N)cc(C)c1Oc1nc(Nc2ccc(C#N)cc2)nc2c1CN(C(=O)[C@@H](N)Cc1ccccc1)CC2 [BB0274111, (S)-4-((6-(2-Amino-3-phenylpropanoyl)-2-((4-cyanophenyl)amino)-5,6,7,8-tetrahydropyrido[4,3-d]pyrimidine-4-yl)oxy)-3,5-dimethylbenzonitrile]
6.76	Cc1cc(C#N)cc(C)c1Oc1nc(Nc2ccc(C#N)cc2)nc2c1CN(Cc1cccnc1)CC2 [BB0274138, 4-((2-((4-Cyanophenyl)amino)-6-(pyridine-3-ylmethyl)-5,6,7,8-tetrahydropyrido[4,3-d]pyrimidine-4-yl)oxy)-3,5-dimethylbenzonitrile]
3.41	Cc1cc(C#N)cc(C)c1Oc1nc(Nc2ccc(C#N)cc2)nc2c1CN(C(=O)[C@H](C)N)CC2 [BB0274102, (S)-4-((6-(2-Aminopropanoyl)-2-((4-cyanophenyl)amino)-5,6,7,8-tetrahydropyrido[4,3-d]pyrimidine-4-yl)oxy)-3,5-dimethylbenzonitrile]
27800	Cc1cc(C#N)cc(C)c1Oc1nc(Nc2ccc(C#N)cc2)nc2c1CN(Cc1ccccc1O)CC2 [BB0274140, 4-((2-((4-Cyanophenyl)amino)-6-(2-hydroxybenzyl)-5,6,7,8-tetrahydropyrido[4,3-d]pyrimidine-4-yl)oxy)-3,5-dimethylbenzonitrile]
174000	C#CCOc1ccccc1CN1CCc2nc(Nc3ccc(C#N)cc3)nc(Oc3c(C)cc(C#N)cc3C)c2C1 [BB0274141, 4-((2-((4-Cyanophenyl)amino)-6-(2-(prop-2-in-1-yloxy)benzyl)-5,6,7,8-tetrahydropyrido[4,3-d]pyrimidine-4-yl)oxy)-3,5-dimethylbenzonitrile]
5800	Cc1cc(C#N)cc(C)c1Oc1nc(Nc2ccc(C#N)cc2)nc2c1CCN(Cc1ccc(O)cc1)CC2 [BB0274075, 4-((2-((4-Cyanophenyl)amino)-7-(4-hydroxybenzyl)-6,7,8,9-tetrahydro-5H-pyrimido[4,5-d]azepine-4-yl)oxy)-3,5-dimethylbenzonitrile]
